Source: patent US5278176A (Abbott Laboratories, priority 1992, dated 1994)
Counter-ions that a name gives are not always drawn.

What was measured:
[1] = biological target: Neuronal Nicotinic Receptors; experiment: Binding of [^3 H]-methylcarbamylcholine ([^3 H]-MCC) to neuronal nicotinic receptors (Table 1); parameters: species or system rat
Experimental: Protocols for Determination of Nicotinic Receptor Binding Potencies of Agonists
Binding of [^3 H]-methylcarbamylcholine ([^3 H]-MCC) to nicotinic receptor was accomplished using crude synaptic membrane preparations from whole rat brain (Snyder and Enna, Brain Research, 1975, 100:81). Washed membranes were stored at -80° C. prior to use. Frozen aliquots were slowly thawed and resuspended in 20 volumes of buffer (containing: 120 mM NaCl, 5 mM KCl, 2 mM MgCl2, 2 mM CaCl2 and 50 mM Tris-Cl, pH 7.4 @4° C.). After centrifuging at 20,000 g for 15 minutes, the pellets were resuspended in 30 volumes of buffer. Homogenate (containing 125-150 μg protein) was added to triplicate tubes containing concentrations of test compound and [^3 H]-MCC (3 nM) in a final volume of 500 μL. Samples were incubated for 60 minutes at 4° C., then rapidly filtered through Whatman GF/B filters presoaked in 0.5% polyethylimine using 3×4 mL of ice-cold buffer. The filters are counted in 4 mL of Ecolume® (ICN). […] Alternately, data were expressed as a percentage of the total specific binding.

[2] = system: anxiolytic activity (time in open arms); experiment: Mouse Elevated Plus-Maze Studies; type: in vivo, CD1 mice
Experimental: FIG. 4 is a graphical representation of the effects of the compound of Example 4 (0.003-0.3 mg/kg) on the performance of CD1 mice in the Elevated-Plus Maze Study expressed as median time (seconds) spent on the open arms of the maze.
The mouse elevated plus-maze is a conflict test that probes anxiolytic activity of test compounds (Lister, Psychopharmacology, 1987, 92:180). It is based on the fact that exposure of mice to an elevated open arm leads to an avoidance response considerably stronger than that evoked by exposure to an enclosed arm.
The apparatus required to perform this test is made of plywood and consists of two open arms (17×8 cm) and two enclosed arms (17×8×15 cm) extending from a central platform (8×8 cm). It is mounted on a plywood base rising 39 cm above the floor. Mice are released on the central platform and the time spent in the open and enclosed arms is recorded during a 5 minute test period.
The compound of Example 4 (0.62-6.2 μmol/kg, IP) was administered to CD1 mice 15 minutes before the test.

[3] = system: receptors; settings: chronic nicotine administration; cited from earlier work
[4] = background statement; cited from earlier work
[5] = system: withdrawal symptoms; settings: double-blind studies; cited from earlier work
[6] = system: cognitive function; settings: acutely and chronically administered; preserved in aged animals; cited from earlier work
[7] = system: heart; settings: in vivo; cited from earlier work
[8] = system: anger, irritability, frustration, tension, anxiety; settings: cited from earlier work
[9] = system: parietotemporal cortex; settings: parietotemporal cortex of humans; cited from earlier work
[10] = system: cholinergic receptors located in the heart; settings: cited from earlier work
[11] = system: cortical receptors; settings: cited from earlier work
[12] = system: retention of the avoidance response; experiment: Inhibitory Avoidance Studies; type: in vivo, CD1 mice; settings: 0.06-6.2 μmol/kg IP, 15 min before training; FIG. 2
Experimental: FIG. 2 is a graphical representation (bar graph) of the effects of the compound of Example 8 (0.001-1.0 mg/kg) on the performance of CD1 mice in Inhibitory Avoidance Studies expressed as median step-through latency time (seconds).
The inhibitory (or sometimes called passive) avoidance (IA) test is a well accepted animal model of learning/memory used to assess the activity of novel muscarinic agonists to enhance cognitive function (Wanibuchi et al., Eur. J. Pharmacol., 1990, 187:479). Animals are placed in the illuminated (12×14×11 cm) portion of a two-chambered box, from which they enter through a guillotine door to the larger (24×13.5×12 cm) dark compartment of the box. Entry to the dark compartment is accompanied by a mild (0.5 mA), brief (2 seconds) footshock. Initial latencies to cross are recorded, with an imposed 60 second ceiling. Following a 72 hour retention interval, animals are returned to the illuminated chamber, and latency to return to the dark compartment is again recorded, with a ceiling of 180 seconds. No footshock is administered on the test day.
Twelve animals were used in each group.

[13] = system: insecticidal activity; settings: U.S. Pat. No. 4,093,620; cited from earlier work
[14] = [^3 H]-MCC (3 nM), whole rat brain membranes, 60 min at 4° C., Cheng-Prusoff from IC50

CN1C[C@@H](CC#N)CC1c1cccnc1 (stereo partly drawn) [Example 16, 4'-(R)-Cyanomethylnicotine oxalate]
Ki [1, 14]: 53 nM

CN1CCC[C@H]1c1cccnc1 [nicotine]
Ki [1, 14]: 1 nM
time spent in open arms of the maze ([2]; (-)nicotine 0.1 and 0.3 mmol/kg, p<0.05 vs saline, 5 min test): significant increase in the time spent by the mice in the open arms of the maze
effect on receptor affinity [3]: without affecting affinity
up-regulation of number of receptors [3]: 50-100%
oral bioavailability [4]: poor oral bioavailability
pharmacokinetics [4]: unfavorable pharmacokinetics
suppression/prevention of withdrawal signs and symptoms vs placebo [5]: far superior to placebo in suppressing or preventing the appearance of many of the signs and symptoms of withdrawal
cognitive function [6]: enhances cognitive function in rats
stimulant effects on the heart [7]: increasing cardiac workload and oxygen demand
anxiolytic properties ([8]; Pomerleau et al. 1984): anxiolytic properties
effect on anger, irritability, frustration, tension ([8]; U.S. Pat. No. 3,879,794, without general response depression, drowsiness or sedation): effective in reducing anger, irritability, frustration and feelings of tension

CN1C[C@H](O)CC1c1cccnc1 (stereo partly drawn) [Example 1, 4'-(R)-Hydroxynicotine oxalate]
Ki [1, 14]: 29 nM

COC(=O)C1=CCCN(C)C1 [arecoline]
Ki ([1]; arecoline comparator in text, unit inferred): 59 nM
pharmacokinetics [4]: unfavorable pharmacokinetics

CN1C[C@@H](F)CC1c1cccnc1 (stereo partly drawn) [Example 3, 4'-(S)-Fluoronicotine dioxalate]
Ki [1, 14]: 35 nM

CN1C[C@H](OS(C)(=O)=O)CC1c1cccnc1 (stereo partly drawn) [Example 19, 4'-(R)-Methanesulfonyoxynicotine oxalate]
Ki [1, 14]: 276 nM

CN1CCC(CF)C1c1cccnc1 (stereo not drawn) [Example 9, 3'-Fluoromethylnicotine oxalate]
Ki [1, 14]: 106 nM

CO[C@@H]1CC(c2cccnc2)N(C)C1 (stereo partly drawn) [Example 2, 4'-(R)-Methoxynicotine oxalate]
Ki [1, 14]: 25 nM

CN1C[C@@H](Cc2ccccc2)CC1c1cccnc1 (stereo partly drawn) [Example 5, 4'-(S)-Benzylnicotine dioxalate]
Ki [1, 14]: 135 nM

CC[C@H]1CC(c2cccnc2)N(C)C1 (stereo partly drawn) [Example 6, 4'-(S)-Ethylnicotine dioxalate]
Ki [1, 14]: 53 nM

CC1CN(C)C(c2cccnc2)C1C (stereo not drawn) [Example 13, 3',4'-Dimethylnicotine oxalate]
Ki [1, 14]: 105 nM

CN1C[C@@H](C#N)CC1c1cccnc1 (stereo partly drawn) [Example 11, 4'-(S)-Cyanonicotine dioxalate]
Ki [1, 14]: 7 nM

CC(=O)O[C@@H]1CC(c2cccnc2)N(C)C1 (stereo partly drawn) [Example 12, 4'-(R)-Acetyloxynicotine oxalate]
Ki [1, 14]: 162 nM

C[N+](C)(C)CCOC(N)=O [carbachol]
CNS penetration [4]: poor CNS penetration

CNC1(C)C2CCC(C2)C1(C)C (stereo not drawn) [mecamylamine]
resting cortical perfusion [9]: reduces resting cortical perfusion

C[C@@H]1CC(c2cccnc2)N(C)C1.O=C(O)C(=O)O.O=C(O)C(=O)O (stereo partly drawn) [Example 4, 4'-(R)-Methylnicotine dioxalate]
Ki [1, 14]: 4.2 nM
anxiolytic response (time in open arms) ([2]; 0.62-6.2 μmol/kg IP, 15 min before test, p<0.05 vs control, FIG. 4): clear anxiolytic response
anxiolytic effect compared with (-)nicotine ([2]; FIG. 4): anxiolytic effect similar to (-)nicotine

CC1CCN(C)C1c1cccnc1 (stereo not drawn) [Example 10, 3'-methylnicotine dioxalate]
Ki [1, 14]: 23 nM

CCN1C(=O)CC2(CCN(C)CC2)C1=O [RS-86]
agonist efficacy at cardiac receptors [10]: full agonist at cardiac receptors
agonist efficacy at cortical receptors [11]: only a partial agonist at cortical receptors
potency and selectivity [4]: poor potency and lack of selectivity

CN1C[C@H](CF)CC1c1cccnc1.O=C(O)C(=O)O (stereo partly drawn) [Example 8, 4'-(R)-Fluoromethylnicotine oxalate]
Ki [1, 14]: 10 nM
facilitation of retention of the avoidance response [12]: significantly facilitated the retention of the avoidance response

CN1C(C#N)CCC1c1cccnc1 (stereo not drawn) [5'-cyanonicotine]
insecticidal activity [13]: insecticidal activity
